Source: ChEMBL document CHEMBL1201862, “PubChem BioAssay data set” (2004)
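Compound exposure: 48 hours, 5 concentrations, 96-well plates. The concentration for 50% growth inhibition is given as GI50.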 Activity calls are given as the source filed them. Rule as the data show it: active = GI50 up to about 1.1 µM and inactive = higher. Square brackets hold non-standard residues; d marks the D form. Peptide text beside a SMILES is read from it. * marks the point of attachment. X26 = COC1=CC(=O)N(C(=O)[C@@H](O*)C(C)C)[C@H]1Cc1ccccc1; NMeL = CN[C@@H](CC(C)C)C(=O)O; Hexanoyl = CCCCCC(=O)*

Legend:
Experiment in all cases: NCI tumour cell line growth inhibition, 48 h
786-0 = tested on: 786-0
A549 = tested on: A549
COLO 205 = tested on: COLO 205
HOP-62 = tested on: HOP-62
HT-29 = tested on: HT-29
Hs-578T = tested on: Hs-578T
M14 = tested on: M14
MDA-N = tested on: MDA-N
NCI-H23 = tested on: NCI-H23
OVCAR-3 = tested on: OVCAR-3
PC-3 = tested on: PC-3
RPMI-8226 = tested on: RPMI-8226
RXF 393 = tested on: RXF 393
SF-539 = tested on: SF-539
SW-620 = tested on: SW-620
T47D = tested on: T47D
UACC-257 = tested on: UACC-257
UACC-62 = tested on: UACC-62
IGROV-1 = tested on: IGROV-1
UO-31 = tested on: UO-31

Measured: GI50

Nc1ccccc1CC(O)C(=O)O (stereo unspecified)
inactive: 786-0 > 100 µM | A549 > 100 µM | COLO 205 > 100 µM | HOP-62 > 100 µM | HT-29 > 100 µM | Hs-578T > 100 µM | M14 > 100 µM | MDA-N > 100 µM | NCI-H23 > 100 µM | OVCAR-3 > 100 µM | PC-3 > 100 µM | RPMI-8226 > 100 µM | RXF 393 > 100 µM | SF-539 > 100 µM | SW-620 > 100 µM | T47D > 100 µM | UACC-257 > 100 µM | UACC-62 > 100 µM

COc1ccc(-c2nc(N)n(C)c2SSc2c(-c3ccc(OC)cc3)nc(N)n2C)cc1
inactive: 786-0 5.77 µM | A549 17.5 µM | COLO 205 2.19 µM | HOP-62 17.5 µM | HT-29 9.59 µM | Hs-578T 9.16 µM | IGROV-1 14.3 µM | M14 2.19 µM | MDA-N 2.63 µM | NCI-H23 5.14 µM | OVCAR-3 7.23 µM | PC-3 6.34 µM | RPMI-8226 2.69 µM | RXF 393 2.74 µM | SF-539 4.69 µM | SW-620 2.23 µM | T47D 1.86 µM | UACC-257 5.96 µM | UACC-62 3.81 µM | UO-31 5.25 µM

COc1ccc(-c2cc(-c3ccccc3)n(C3OCC(OC(C)=O)C(OC(C)=O)C3OC(C)=O)c(=S)c2C#N)cc1 (stereo unspecified)
inactive: A549 > 100 µM | COLO 205 > 100 µM | HOP-62 > 100 µM | HT-29 > 100 µM | Hs-578T 15.3 µM | IGROV-1 > 100 µM | M14 > 100 µM | MDA-N 54.5 µM | NCI-H23 > 100 µM | OVCAR-3 > 100 µM | PC-3 > 100 µM | RPMI-8226 > 100 µM | RXF 393 37.5 µM | SF-539 > 100 µM | SW-620 > 100 µM | T47D 78.7 µM | UACC-257 > 100 µM | UACC-62 53 µM | UO-31 28.6 µM

C=CCOc1ccc(C2(c3ccc(OCC=C)cc3)C(=O)Nc3ccccc32)cc1
inactive: 786-0 > 10 µM | A549 > 10 µM | COLO 205 7.19 µM | HOP-62 > 10 µM | HT-29 > 10 µM | Hs-578T 1.46 µM | IGROV-1 > 10 µM | M14 > 10 µM | MDA-N > 10 µM | NCI-H23 > 10 µM | OVCAR-3 > 10 µM | PC-3 > 10 µM | RPMI-8226 > 10 µM | RXF 393 > 10 µM | SF-539 > 10 µM | SW-620 > 10 µM | T47D 8.13 µM | UACC-257 > 10 µM | UACC-62 > 10 µM

Cc1cc(C)n(C(=O)CSc2nc3ccc(I)cc3c(=O)n2Cc2ccccc2)n1
inactive: 786-0 28.3 µM | A549 41 µM | COLO 205 59.7 µM | HOP-62 31.9 µM | HT-29 > 100 µM | Hs-578T 20 µM | IGROV-1 20 µM | M14 97.1 µM | MDA-N > 100 µM | NCI-H23 65.8 µM | OVCAR-3 58.6 µM | PC-3 22.1 µM | RPMI-8226 > 100 µM | RXF 393 26.9 µM | SF-539 86.9 µM | SW-620 87.1 µM | T47D 23.2 µM | UACC-257 33.9 µM | UACC-62 80.5 µM

CCCCCCCCCCCCCCCCOCC(Cl)COP(=O)(O)OP(=O)(O)OCC1OC(n2cc(C)c(=O)[nH]c2=O)CC1O (stereo unspecified)
inactive: 786-0 > 100 µM | A549 > 100 µM | COLO 205 > 100 µM | HOP-62 > 100 µM | HT-29 > 100 µM | Hs-578T 31.4 µM | IGROV-1 55.2 µM | M14 > 100 µM | MDA-N 52.8 µM | NCI-H23 > 100 µM | OVCAR-3 > 100 µM | PC-3 25.1 µM | RPMI-8226 > 100 µM | RXF 393 > 100 µM | SF-539 72.9 µM | SW-620 > 100 µM | T47D 97.3 µM | UACC-257 > 100 µM | UO-31 > 100 µM

CCCCCC(=O)N[C@H](C(=O)N[C@H](C(=O)N(C)[C@@H](CC(C)C)C(=O)N1CCC[C@H]1C(=O)N1CCC[C@H]1C(=O)O[C@H](C(=O)N1C(=O)C=C(OC)[C@@H]1Cc1ccccc1)C(C)C)C(C)C)C(C)C (Hexanoyl-VV[NMeL]PP-X26)
inactive: 786-0 > 91 µM | A549 18.1 µM | COLO 205 32.5 µM | HOP-62 > 100 µM | HT-29 > 100 µM | Hs-578T > 88.3 µM | IGROV-1 > 44.2 µM | M14 > 33.3 µM | MDA-N 28.3 µM | NCI-H23 21.2 µM | OVCAR-3 > 100 µM | PC-3 27.2 µM | RPMI-8226 2.74 µM | RXF 393 10.1 µM | SF-539 > 59.2 µM | SW-620 > 100 µM | T47D 70.8 µM | UACC-257 45.3 µM | UACC-62 > 100 µM

COc1ccc(C=C2C(C)=NN(c3cccc(Cl)c3)C23C(Cl)C(=O)N3c2nc3ccccc3s2)cc1 (stereo unspecified)
inactive: 786-0 16 µM | HOP-62 20 µM | HT-29 9.51 µM | Hs-578T 14.4 µM | IGROV-1 16.4 µM | M14 17.2 µM | MDA-N 19.9 µM | NCI-H23 15 µM | OVCAR-3 19.4 µM | PC-3 17.2 µM | RPMI-8226 2.82 µM | RXF 393 12.7 µM | SF-539 30.5 µM | SW-620 5.6 µM | T47D 24.6 µM | UACC-257 24.9 µM | UO-31 16.3 µM

O=c1[nH]c(=O)n(CCOCP(=O)(O)O)nc1Br
inactive: A549 > 100 µM | COLO 205 > 100 µM | HOP-62 > 100 µM | HT-29 > 100 µM | Hs-578T > 100 µM | IGROV-1 > 100 µM | M14 > 100 µM | MDA-N > 100 µM | NCI-H23 > 100 µM | OVCAR-3 > 100 µM | PC-3 > 100 µM | RPMI-8226 > 100 µM | RXF 393 > 100 µM | SF-539 > 100 µM | SW-620 > 100 µM | T47D > 100 µM | UO-31 > 100 µM

CN(C)/C=N/c1c2c(nc3ccccc13)CCCC2
inactive: 786-0 > 100 µM | A549 57.9 µM | COLO 205 70.8 µM | HOP-62 > 100 µM | HT-29 36.7 µM | Hs-578T > 100 µM | IGROV-1 > 100 µM | M14 > 100 µM | MDA-N 61.7 µM | NCI-H23 50.7 µM | OVCAR-3 38.6 µM | PC-3 38.5 µM | RPMI-8226 53.3 µM | RXF 393 > 100 µM | SF-539 96.4 µM | T47D 66.2 µM | UACC-257 71 µM | UACC-62 > 100 µM | UO-31 67.8 µM
